Series [1] has as its target Calcium-activated potassium channel subunit alpha-1 (Homo sapiens, UniProt Q12791, G803D/N806K). Briefly: Activation of hyperactive human BKca channel G803D/N806K mutant transfected in human AD-293 cells incubated for 20 to 30 mins by Flexstation3 multimode microplate reader analysis. The format is cell-based.
The target in series [2] is T1, Calcium-activated potassium channel subunit alpha-1 (Homo sapiens, UniProt Q12791). Briefly: Activation of human BK ca channel expressed in CHO cells by whole cell patch clamp method. The format is cell-based. On the technique in general: The patch-clamp technique gives a direct electrical read-out from membranes.
Series [3] has as its system Calcium-activated potassium channel subunit alpha-1 (Homo sapiens), Q12791 [UNDEFINED MUTATION]. Kind of series: Activation of hyperactive human BKca channel G803D/N806K mutant transfected in human AD-293 cells assessed as maximum relative fluorescence value at 5 uM preincubated for 15 mins followed by Tl+ stimulus buffer addition and measured after 80 sec by Flexstation3 multimode microplate reader analysis relative to control. The format is cell-based. The note with it: time 980.0 sec.

For series [4], the target named is T1, Calcium-activated potassium channel subunit alpha-1. Kind of series: Activation of BKca channel (unknown origin) by cell-based fluorescence assay.
The target is the same in series [5]. Briefly: Activation of BKca channel (unknown origin) by cell based method.
The test system of a further series is Urinary bladder. Briefly: Induction of relaxation in Sprague-Dawley rat urinary bladder strips assessed as reduction in contraction. The format is functional, tissue-based.
Series [6] concerns Calcium-activated potassium channel subunit alpha-1 (Homo sapiens), Q12791 [UNDEFINED MUTATION]. Kind of series: Activation of hyperactive human BKca channel G803D/N806K mutant transfected in human AD-293 cells assessed as fold change in maximum relative fluorescence value at 5 uM preincubated for 15 mins followed by Tl+ stimulus buffer addition and measured after 80 sec by Flexstation3 multimode microplate reader analysis. The note with it: filed as opener, time 980.0 sec. Type of series: cell-based.

Series [7] addresses T1, Calcium-activated potassium channel subunit alpha-1. Briefly: Activation of human KCa1.1 by patch clamp method.
A short description of series [8]: Cmax in male Sprague-Dawley rat at 10 mg/kg, po by LC-MS/MS analysis. Type of series: ADME, organism-based. The note with it: in vivo.
Series [9] is described as follows: Tmax in male Sprague-Dawley rat at 10 mg/kg, po by LC-MS/MS analysis. The format is ADME, organism-based. The note with it: in vivo.
The nature of series [10]: Half-life in male Sprague-Dawley rat at 10 mg/kg, po by LC-MS/MS analysis. The format is ADME, organism-based. The note with it: in vivo.
A short description of series [11]: AUClast in male Sprague-Dawley rat at 10 mg/kg, po by LC-MS/MS analysis. The settings on record: in vivo. Type of series: ADME, organism-based.
A short description of series [12]: Aqueous solubility of compound in pure distilled water at >50 mg/ml. The note with it: buffer. Type of series: physicochemical.
The nature of series [13]: Aqueous solubility of compound in PBS at >50 mg/ml. The format is physicochemical. The settings on record: buffer.
Series [14] can be described thus: Toxicity in male spontaneous hypertensive rat model at 100 mg/kg, po. The note with it: in vivo. Type of series: organism-based.
Series [15] concerns Rattus norvegicus. Briefly: Reversal of urinary incontinence in male spontaneous hypertensive rat model assessed as decrease in urine frequency at 100 mg/kg, po measured after 3 hrs relative to control. Type of series: functional. Set-up: scale not given: the % may be the effect or the level left.
The test system of series [16] is Rattus norvegicus. Briefly: Reversal of urinary incontinence in male spontaneous hypertensive rat model assessed as decrease in urine volume at 100 mg/kg, po measured after 3 hrs relative to control. The format is functional. Set-up: scale not given: the % may be the effect or the level left.
Series [17] can be described thus: Half-life in male Dunkin Hartley guinea pig at 10 mg/kg, iv by LC-MS/MS analysis. Type of series: ADME, organism-based, Cavia porcellus. The note with it: in vivo.
Series [18] can be described thus: AUClast in male Dunkin Hartley guinea pig at 10 mg/kg, iv by LC-MS/MS analysis. The settings on record: in vivo. Type of series: ADME, organism-based, Cavia porcellus.
The nature of series [19]: Clearance in male Dunkin Hartley guinea pig at 10 mg/kg, iv by LC-MS/MS analysis. The note with it: in vivo. The format is ADME, organism-based, Cavia porcellus.
Series [20] is described as follows: Volume of distribution at steady state in male Dunkin Hartley guinea pig at 10 mg/kg, iv by LC-MS/MS analysis. The format is ADME, organism-based, Cavia porcellus. The settings on record: in vivo, read-out: Vdss.
Series [21] is described as follows: Cmax in male Dunkin Hartley guinea pig at 10 mg/kg, po by LC-MS/MS analysis. The settings on record: in vivo. Type of series: ADME, organism-based, Cavia porcellus.
The nature of series [22]: Tmax in male Dunkin Hartley guinea pig at 10 mg/kg, po by LC-MS/MS analysis. Type of series: ADME, organism-based, Cavia porcellus. The note with it: in vivo.
A short description of series [23]: Half-life in male Dunkin Hartley guinea pig at 10 mg/kg, po by LC-MS/MS analysis. The format is ADME, organism-based, Cavia porcellus. The note with it: in vivo.
Series [24] is described as follows: AUClast in male Dunkin Hartley guinea pig at 10 mg/kg, po by LC-MS/MS analysis. The format is ADME, organism-based, Cavia porcellus. The note with it: in vivo.
Series [25] is described as follows: Oral bioavailability in male Dunkin Hartley guinea pig at 10 mg/kg by LC-MS/MS analysis. Type of series: ADME, organism-based, Cavia porcellus. The settings on record: in vivo.
Series [26] is described as follows: Drug concentration in male Dunkin Hartley guinea pig lung at 10 mg/kg, po measured after 1 hrs by LC-MS/MS analysis. The note with it: read-out: Ct. The format is ADME, organism-based, Cavia porcellus.
The nature of series [27]: Drug concentration in male Dunkin Hartley guinea pig lung at 10 mg/kg, po measured after 4 hrs by LC-MS/MS analysis. Type of series: ADME, organism-based, Cavia porcellus. The note with it: read-out: Ct.
Series [28] is described as follows: Drug concentration in male Dunkin Hartley guinea pig brain at 10 mg/kg, po measured after 1 hrs by LC-MS/MS analysis. Type of series: ADME, organism-based, Cavia porcellus. The settings on record: read-out: Ct.
Series [29] can be described thus: Drug concentration in male Dunkin Hartley guinea pig brain at 10 mg/kg, po measured after 4 hrs by LC-MS/MS analysis. The format is ADME, organism-based, Cavia porcellus. The note with it: read-out: Ct.
Series [30] is described as follows: Drug concentration in male Dunkin Hartley guinea pig blood at 10 mg/kg, po measured after 1 hrs by LC-MS/MS analysis. The format is ADME, organism-based, Cavia porcellus. The settings on record: read-out: Ct.
Series [31] is described as follows: Drug concentration in male Dunkin Hartley guinea pig blood at 10 mg/kg, po measured after 4 hrs by LC-MS/MS analysis. The format is ADME, organism-based, Cavia porcellus. The settings on record: read-out: Ct.
A short description of series [32]: Ratio of drug concentration in male Dunkin Hartley guinea pig lung to plasma at 10 mg/kg, po measured after 1 hrs by LC-MS/MS analysis. The format is ADME, organism-based, Cavia porcellus.
Series [33] in a line: Ratio of drug concentration in male Dunkin Hartley guinea pig lung to plasma at 10 mg/kg, po measured after 4 hrs by LC-MS/MS analysis. Type of series: ADME, organism-based, Cavia porcellus.
A short description of series [34]: Ratio of drug concentration in male Dunkin Hartley guinea pig brain to plasma at 10 mg/kg, po measured after 1 hrs by LC-MS/MS analysis. The format is ADME, organism-based, Cavia porcellus. The note with it: read-out: BPR.
A short description of series [35]: Ratio of drug concentration in male Dunkin Hartley guinea pig brain to plasma at 10 mg/kg, po measured after 4 hrs by LC-MS/MS analysis. Type of series: ADME, organism-based, Cavia porcellus. The settings on record: read-out: BPR.
Series [36] deals with Cavia porcellus. Briefly: Antitussive activity in citric acid-induced male Dunkin Hartley guinea pig cough model assessed as reduction in cough number at 8 mg/kg, po pretreated with compound for 4 hrs followed by citric acid administration and measured after 10 mins relative to control. Type of series: functional. Set-up: scale not given: the % may be the effect or the level left. The settings on record: time 250 min, 4.167 h.

Series [37] has as its system Cavia porcellus. Briefly: Antitussive activity in citric acid-induced male Dunkin Hartley guinea pig cough model assessed as reduction in cough number at 20 mg/kg, po pretreated with compound for 4 hrs followed by citric acid administration and measured after 10 mins relative to control. Type of series: functional. Set-up: scale not given: the % may be the effect or the level left. The note with it: time 250 min, 4.167 h.

Series [38] has as its system Cavia porcellus. Kind of series: Antitussive activity in citric acid-induced male Dunkin Hartley guinea pig cough model assessed as reduction in cough number at 50 mg/kg, po pretreated with compound for 4 hrs followed by citric acid administration and measured after 10 mins relative to control. Type of series: functional. Set-up: scale not given: the % may be the effect or the level left. The settings on record: time 250 min, 4.167 h.

In series [39] the test system is Cavia porcellus. Kind of series: Antitussive activity in citric acid-induced male Dunkin Hartley guinea pig cough model assessed as reduction in cough number pretreated orally with compound for 4 hrs followed by citric acid administration and measured after 10 mins. Type of series: functional. The note with it: 4.167 h, route po, time 250 min.
The target in series [40] is T1, Calcium-activated potassium channel subunit alpha-1. Briefly: Activation of BKca channel (unknown origin) by patch-clamp method.

The EC50 is the concentration needed to bring the measured effect to its halfway point. In general, Cmax refers to the peak of the concentration-time curve. The term Tmax denotes the time from dosing to the highest level. Usually half-life stands for the time needed for the level to fall by half in the phase considered. One may read the AUC(0-t) as the area under the concentration-time curve up to a stated or last time point. A word on the clearance: it is the volume of plasma or blood freed of the substance per unit of time. What is called bioavailability is the share of a dose that reaches the circulation, judged against a reference dose that is usually intravenous. Broadly, the ED50 is the dose at which the effect has come halfway, by size or by number of responders.

Calcium-activated potassium channel subunit alpha-1 (Homo sapiens), Q12791 [UNDEFINED MUTATION], sequence (Q12791 whole entry, looked up, stated change not applied): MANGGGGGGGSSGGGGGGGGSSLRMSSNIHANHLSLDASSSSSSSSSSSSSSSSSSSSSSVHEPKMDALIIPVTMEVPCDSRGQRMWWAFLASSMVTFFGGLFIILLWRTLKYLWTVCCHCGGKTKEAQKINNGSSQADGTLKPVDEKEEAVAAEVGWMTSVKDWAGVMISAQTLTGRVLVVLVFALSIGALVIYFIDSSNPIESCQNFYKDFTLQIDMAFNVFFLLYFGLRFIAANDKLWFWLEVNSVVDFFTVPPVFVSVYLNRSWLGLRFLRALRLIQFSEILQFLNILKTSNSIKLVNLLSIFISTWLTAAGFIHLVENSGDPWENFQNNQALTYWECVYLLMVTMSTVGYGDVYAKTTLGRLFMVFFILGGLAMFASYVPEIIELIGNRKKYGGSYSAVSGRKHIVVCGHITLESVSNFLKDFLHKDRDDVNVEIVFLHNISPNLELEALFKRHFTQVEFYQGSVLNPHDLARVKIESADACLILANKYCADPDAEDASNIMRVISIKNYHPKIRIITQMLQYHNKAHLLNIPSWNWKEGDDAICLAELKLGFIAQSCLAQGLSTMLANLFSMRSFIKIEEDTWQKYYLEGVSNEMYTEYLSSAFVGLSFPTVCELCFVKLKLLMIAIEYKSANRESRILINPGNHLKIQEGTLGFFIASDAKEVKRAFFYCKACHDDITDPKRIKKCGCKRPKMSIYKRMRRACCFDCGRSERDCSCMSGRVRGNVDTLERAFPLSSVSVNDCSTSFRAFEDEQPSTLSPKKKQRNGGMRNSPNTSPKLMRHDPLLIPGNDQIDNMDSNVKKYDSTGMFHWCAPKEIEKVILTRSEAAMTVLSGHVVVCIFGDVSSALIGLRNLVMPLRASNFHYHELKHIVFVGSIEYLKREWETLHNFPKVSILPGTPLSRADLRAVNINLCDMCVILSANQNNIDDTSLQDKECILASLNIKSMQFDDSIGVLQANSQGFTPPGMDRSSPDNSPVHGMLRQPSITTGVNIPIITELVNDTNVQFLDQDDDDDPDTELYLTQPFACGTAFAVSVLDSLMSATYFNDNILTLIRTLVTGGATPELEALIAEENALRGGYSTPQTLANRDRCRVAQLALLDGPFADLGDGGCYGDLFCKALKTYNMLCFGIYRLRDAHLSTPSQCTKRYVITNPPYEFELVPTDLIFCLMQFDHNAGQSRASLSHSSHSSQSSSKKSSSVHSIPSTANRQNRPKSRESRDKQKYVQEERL
T1 sequence (Q12791 whole entry): as the sequence (Q12791 whole entry, looked up, stated change not applied) above
Calcium-activated potassium channel subunit alpha-1 (Homo sapiens, UniProt Q12791, G803D/N806K), sequence (Q12791 whole entry, looked up, stated change not applied): as above

With `Oc1ccc(-c2onc(C(F)(F)F)c2-c2ccc(Cl)cc2)c(O)c1`, the EC50 in series [1] worked out at 3.9 µM.
As for `CCc1oc2ccccc2c1C(=O)c1cc(Br)c(O)c(Br)c1` [BENZBROMARONE], the EC50 in series [2] amounted to 111 µM.
In the case of `O=C(O)c1ccc(Cl)c2c1[nH]c1c3ccc(C(F)(F)F)cc3oc12`, the Activity in [3] came out at 34.9%. Also, the EC50 was 5.4 µM in series [4], 5.4 µM in [5] and 2.5 µM with Urinary bladder.
Regarding `FC(F)(F)c1cc(NC(=S)Nc2ccc(Br)cc2-c2nnn[nH]2)cc(C(F)(F)F)c1`, the Activity in series [3] is 14.4%. Besides, the EC50 worked out at 7 µM in series [4], 7 µM in series [5] and 0.4 µM in series [7]. Further, in [6], the fold change (FC) was 2.3.
For the compound `Cl.Cl.Oc1cc(NCCCCCN2CCOCC2)ccc1Oc1c(F)c(F)c(C(F)(F)F)c(F)c1F`, the Cmax in series [8] came to 283 ng/mL; in series [21], 31.8 ng/mL. The results for the Tmax in series [9] and in series [22] were 0.4 h and 1.8 h, respectively. Further, the figures for the half-life in series [10], in series [17] and in series [23] were 7.1 h, 4 h and 4.7 h, respectively. Also, the AUC(0-t) in series [11] came out at 844 ng·h/mL; in series [18], 1800 ng·h/mL; in [24], 188 ng·h/mL. For the same compound, the solubility result in series [12] and in [13] was “soluble” throughout. The Activity result in [14] is on record as “Non-toxic”; with Rattus norvegicus [15], 61.4%; in the series on Rattus norvegicus [16], 62.6%; with Cavia porcellus [36], 25.4%; in the series on Cavia porcellus [37] it was 54.4%; in the series on Cavia porcellus [38], 69.3%. The clearance in series [19] was 93.3 mL/min/kg. Moreover, in series [20], the Vd stood at 18.1 L/kg. Also, in series [25], the bioavailability is 10.5%. The concentration at 1 h in series [26] was found to be 8160 ng/g; in [28], 424 ng/g; in series [30], 28 ng/mL. In addition, the concentration at 4 h in [27] stood at 13500 ng/g; in series [29], 414 ng/g; in series [31] it was 23 ng/mL. The results for the Kp at 1 h in series [32] and in [34] were 291 and 15, respectively. Moreover, the Kp at 4 h in [33] came to 587; in [35], 18. Besides, the ED50 with Cavia porcellus [39] stood at 11.8 mg/kg.
For `O=c1[nH]c2cc(C(F)(F)F)ccc2n1-c1cc(C(F)(F)F)ccc1O`, the EC50 in series [40] is 10 µM.

The values above are taken from ChEMBL document CHEMBL6153133, “Discovery of Diphenyl Ether Derivatives as Novel BKCa Channel Activators: Structure-Activity Relationship, Cryo-EM Complex Structures, and In Vivo Animal Studies” (J Med Chem, 2025).
